Source: ChEMBL document CHEMBL1132801, “NMR analysis of tautomerisms of active pinacidil-type potassium channel openers and a less active one” (2000)

Tested on: Canis familiaris
Experiment: The compound was tested for its antihypertensive activity in dogs after intravenous injection
Format: functional, Canis lupus familiaris

| Structure (SMILES) | Relative activity |
| --- | --- |
| CCC(C)(C)N/C(=C\C#N)Nc1cc(Cl)cc(C#N)c1 | <0.3 |
| CC(N/C(=C\[N+](=O)[O-])Nc1ccccc1)C(C)(C)C (centres undefined) | 1.82 |
| CCC(C)(C)/N=C(\NC#N)Nc1cc(Cl)cc(C#N)c1 | 2.04 |
| CC(N/C(=N\C#N)Nc1ccncc1)C(C)(C)C (centres undefined) [PINACIDIL ANHYDROUS] | 1 |
